From the supplement of paper PMC11061612

What was measured:
MKN1 (Gastric Carcinoma) [1] = assay: Bliss excess, mean over the matrix (fraction); higher = more synergy
Procedure, shortened: (§1)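 Cell lines grown in DMEM/F12 or RPMI with 10% FBS were plated in 1536-well plates and held 24 hours at 37°C, 5% CO2 before 72 hours of exposure to two-drug dose matrices, with DMSO typically at 0.2%. CellTiter-Glo 2.0 luminescence gave viability, which was converted to inhibition. Vehicle wells were set to 0 and blank wells to 1. Combination Emax is the second-highest inhibition in the matrix, and Bliss excess is the observed combination effect minus the expected EA + EB − EA·EB, where EA and EB are the single-agent effects.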

[2] = tested on: NCI-H841 (Small Cell Lung Carcinoma); assay: as above
Procedure, shortened: as §1

[3] = tested on: 22RV1 (Prostate Carcinoma); assay: combination Emax (second highest fraction inhibited in the dose matrix, 72 h); higher = more inhibition; extreme values may be limits of the assay
Procedure, shortened: as §1

769-P (Kidney Carcinoma) = assay: as above
Procedure, shortened: as §1

HCC70 (Breast Carcinoma) = assay: as above
Procedure, shortened: as §1

MKN1 (Gastric Carcinoma) [4] = assay: as above
Procedure, shortened: as §1

[5] = tested on: NCI-H841 (Small Cell Lung Carcinoma); assay: as above
Procedure, shortened: as §1

[6] = tested on: SK-HEP-1 (Hepatocellular Carcinoma); assay: as above
Procedure, shortened: as §1

[7] = tested on: SW620 (Colorectal Carcinoma); assay: as above
Procedure, shortened: as §1
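Wherever Bliss excess, mean over the matrix is given: after 72 h of two-drug dosing.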

| SMILES | Bliss excess (MKN1 (Gastric Carcinoma) [1]) | Bliss excess [2] | combination Emax [3] | combination Emax (769-P (Kidney Carcinoma)) | combination Emax (HCC70 (Breast Carcinoma)) | combination Emax (MKN1 (Gastric Carcinoma) [4]) | combination Emax [5] | combination Emax [6] | combination Emax [7] |
| --- | --- | --- | --- | --- | --- | --- | --- | --- | --- |
| C=CCn1c(=O)c2cnc(Nc3ccc(N4CCN(C)CC4)cc3)nc2n1-c1cccc(C(C)(C)O)n1 [AZD1775] + CCc1c2c(nc3ccc(O)cc13)-c1cc3c(c(=O)n1C2)COC(=O)[C@]3(O)CC [SN-38] (first compound max 1 µM, partner max 0.3 µM) | -0.0056 | -0.0421 | 0.732 | 0.881 | 0.537 | 0.869 | 0.66 | 0.622 | 0.949 |
| C=CCn1c(=O)c2cnc(Nc3ccc(N4CCN(C)CC4)cc3)nc2n1-c1cccc(C(C)(C)O)n1 [AZD1775] + Nc1ccn([C@@H]2O[C@H](CO)[C@@H](O)C2(F)F)c(=O)n1 [Gemcitabine] (first compound max 1 µM, partner max 0.3 µM) | 0.0171 | 0.0425 | 0.744 | 0.868 | 0.513 | 0.927 | 0.726 | 0.514 | 0.9 |
| CN(CCO)CC[C@H](CSc1ccccc1)Nc1ccc(S(=O)(=O)NC(=O)c2ccc(N3CCC([C@@H](O)c4ccccc4-c4ccc(Cl)cc4)CC3)cc2)cc1S(=O)(=O)C(F)(F)F [AZD4320] + CS(=O)(=O)CCNCc1ccc(-c2ccc3ncnc(Nc4ccc(OCc5cccc(F)c5)c(Cl)c4)c3c2)o1 [Lapatinib] (first compound max 1 µM, 7x7, partner max 10 µM) | 0.046 | -0.0037 | 0.335 | 0.989 | 0.93 | 0.888 | 0.237 | 0.909 | 0.741 |
| Cc1c2c(nn1C)CSCc1cc(n(C)n1)CSc1cc(c3ccccc3c1)OCCCc1c(C(=O)O)n(C)c3c-2c(Cl)ccc13 [AZD5991] + CC(=O)O[C@H]1C(=O)[C@@]2(C)[C@H]([C@H](OC(=O)c3ccccc3)[C@]3(O)C[C@H](OC(=O)[C@H](O)[C@@H](NC(=O)c4ccccc4)c4ccccc4)C(C)=C1C3(C)C)[C@]1(OC(C)=O)CO[C@@H]1C[C@@H]2O [Paclitaxel] (first compound max 1 µM, 7x7, partner max 3 µM) | -0.103 | 0.0663 | 0.912 | 0.789 | 0.973 | 0.824 | 0.973 | 0.857 | 0.788 |
| Cc1c2c(nn1C)CSCc1cc(n(C)n1)CSc1cc(c3ccccc3c1)OCCCc1c(C(=O)O)n(C)c3c-2c(Cl)ccc13 [AZD5991] + CS(=O)(=O)CCNCc1ccc(-c2ccc3ncnc(Nc4ccc(OCc5cccc(F)c5)c(Cl)c4)c3c2)o1 [Lapatinib] (first compound max 1 µM, 7x7, partner max 10 µM) | -0.0016 | -0.0161 | 0.55 | 0.917 | 0.995 | 0.53 | 0.3 | 0.632 | 0.207 |
| Cc1c2c(nn1C)CSCc1cc(n(C)n1)CSc1cc(c3ccccc3c1)OCCCc1c(C(=O)O)n(C)c3c-2c(Cl)ccc13 [AZD5991] + Nc1ccn([C@@H]2O[C@H](CO)[C@@H](O)C2(F)F)c(=O)n1 [Gemcitabine] (first compound max 1 µM, 7x7, partner max 0.3 µM) | -0.0205 | 0.0135 | 0.886 | 0.701 | 0.937 | 0.624 | 0.567 | 0.535 | 0.657 |
| C[C@@H]1COCCN1c1cc(C2([S@](C)(=N)=O)CC2)nc(-c2ccnc3[nH]ccc23)n1 [AZD6738] + C1CC(C1)(C(=O)[O-])C(=O)[O-].N.N.[Pt+2] [Carboplatin] (first compound max 10 µM, 7x7, partner max 10 µM) | -0.0424 | -0.0587 | 0.553 | 0.878 | 0.763 | 0.85 | 0.503 | 0.166 | 0.478 |
| C[C@@H]1COCCN1c1cc(C2([S@](C)(=N)=O)CC2)nc(-c2ccnc3[nH]ccc23)n1 [AZD6738] + Nc1ccn([C@@H]2O[C@H](CO)[C@@H](O)C2(F)F)c(=O)n1 [Gemcitabine] (first compound max 10 µM, 7x7, partner max 0.3 µM) | 0.0369 | 0.0975 | 0.754 | 0.865 | 0.826 | 0.951 | 0.829 | 0.645 | 0.895 |
| C[C@@H](Nc1cc(F)cc(F)c1)c1cc(C(=O)N(C)C)cc2c(=O)cc(N3CCOCC3)oc12 [AZD8186] + C1CN(CCC1(C(=O)N[C@@H](CCO)C2=CC=C(C=C2)Cl)N)C3=NC=NC4=C3C=CN4 [AZD5363] (first compound max 10 µM, 7x7, partner max 10 µM) | -0.0304 | -0.025 | 0.546 | 0.338 | 0.732 | 0.491 | 0.293 | 0.159 | 0.24 |
| C[C@@H](Nc1cc(F)cc(F)c1)c1cc(C(=O)N(C)C)cc2c(=O)cc(N3CCOCC3)oc12 [AZD8186] + CC(=O)c1c(C)c2cnc(Nc3ccc(N4CCNCC4)cn3)nc2n(C2CCCC2)c1=O [Palbociclib] (first compound max 10 µM, 7x7, partner max 10 µM) | 0.0017 | 0.0118 | 0.563 | 0.755 | 0.575 | 0.674 | 0.266 | 0.578 | 0.481 |
| C[C@@H](Oc1cc(-c2cnn(C3CCNCC3)c2)cnc1N)c1c(Cl)ccc(F)c1Cl [Crizotinib] + CC1=C(C(=CC=C1)Cl)NC(=O)C2=CN=C(S2)NC3=CC(=NC(=N3)C)N4CCN(CC4)CCO [Dasatinib] (first compound max 10 µM, 7x7, partner max 2 µM) | 0.0586 | -0.0089 | 0.468 | 0.961 | 0.117 | 0.866 | 0.301 | 0.433 | 0.867 |
| C[C@@H](Oc1cc(-c2cnn(C3CCNCC3)c2)cnc1N)c1c(Cl)ccc(F)c1Cl [Crizotinib] + Cn1cnc2c(F)c(Nc3ccc(Br)cc3Cl)c(C(=O)NOCCO)cc21 [Selumetinib] (first compound max 10 µM, 7x7, partner max 10 µM) | 0.0001 | -0.0528 | 0.59 | 0.875 | 0.448 | 0.561 | 0.202 | 0.387 | 0.861 |
| CS(=O)(=O)CCNCc1ccc(-c2ccc3ncnc(Nc4ccc(OCc5cccc(F)c5)c(Cl)c4)c3c2)o1 [Lapatinib] + Cn1cnc2c(F)c(Nc3ccc(Br)cc3Cl)c(C(=O)NOCCO)cc21 [Selumetinib] (first compound max 10 µM, 7x7, partner max 10 µM) | -0.002 | 0.0251 | 0.464 | 0.945 | 0.891 | 0.596 | 0.303 | 0.133 | 0.656 |
| CS(=O)(=O)CCNCc1ccc(-c2ccc3ncnc(Nc4ccc(OCc5cccc(F)c5)c(Cl)c4)c3c2)o1 [Lapatinib] + NC1(c2ccc(-c3nc4ccn5c(=O)[nH]nc5c4cc3-c3ccccc3)cc2)CCC1 [MK-2206] (first compound max 10 µM, 7x7, partner max 10 µM) | 0.0099 | -0.0246 | 0.835 | 0.978 | 0.923 | 0.925 | 0.17 | 0.87 | 0.889 |
| O=C(c1cc(Cc2n[nH]c(=O)c3ccccc23)ccc1F)N1CCN(C(=O)C2CC2)CC1 [Olaparib] + CC1(C)CCC(CN2CCN(c3ccc(C(=O)NS(=O)(=O)c4ccc(NCC5CCOCC5)c([N+](=O)[O-])c4)c(Oc4cnc5[nH]ccc5c4)c3)CC2)=C(c2ccc(Cl)cc2)C1 [Venetoclax] (first compound max 10 µM, 7x7, partner max 1 µM) | -0.0437 | -0.057 | 0.251 | 0.284 | 0.141 | 0.122 | 0.0548 | 0.73 | 0.182 |
| O=C(c1cc(Cc2n[nH]c(=O)c3ccccc23)ccc1F)N1CCN(C(=O)C2CC2)CC1 [Olaparib] + CN(CC[C@H](CSC1=CC=CC=C1)NC2=C(C=C(C=C2)S(=O)(=O)NC(=O)C3=CC=C(C=C3)N4CCC(CC4)[C@H](C5=CC=CC=C5C6=CC=C(C=C6)Cl)O)S(=O)(=O)C(F)(F)F)CCO [AZD4320] (first compound max 10 µM, 7x7, partner max 1 µM) | -0.0238 | -0.0526 | 0.183 | 0.678 | 0.253 | 0.165 | 0.0513 | 0.911 | 0.329 |
| O=C(c1cc(Cc2n[nH]c(=O)c3ccccc23)ccc1F)N1CCN(C(=O)C2CC2)CC1 [Olaparib] + COc1nnc2ccc(N3CCC(c4ccc(OCCN5CCN(C)C(=O)[C@H]5C)cc4)CC3)nn12 [AZD5153] (first compound max 10 µM, 7x7, partner max 1 µM) | -0.0577 | -0.0593 | 0.546 | 0.709 | 0.281 | 0.631 | 0.236 | 0.752 | 0.447 |
| O=C(c1cc(Cc2n[nH]c(=O)c3ccccc23)ccc1F)N1CCN(C(=O)C2CC2)CC1 [Olaparib] + Cc1c2c(nn1C)CSCc1cc(n(C)n1)CSc1cc(c3ccccc3c1)OCCCc1c(C(=O)O)n(C)c3c-2c(Cl)ccc13 [AZD5991] (first compound max 10 µM, 7x7, partner max 1 µM) | -0.0332 | -0.0522 | 0.519 | 0.261 | 0.879 | 0.118 | 0.126 | 0.478 | 0.173 |
| Cc1nc(-c2cn3c(n2)-c2ccc(-c4cnn(C(C)(C)C(N)=O)c4)cc2OCC3)n(C(C)C)n1 [Taselisib] + O=C(Nc1ccc2[nH]nc(-c3ccncc3)c2c1)[C@@H]1CCN(CC(=O)N2CCN(c3ccc(-c4ncccn4)cc3)CC2)C1 [SCH772984] (first compound max 10 µM, 7x7, partner max 5 µM) | 0.0698 | 0.0606 | 0.702 | 0.809 | 0.943 | 0.838 | 0.439 | 0.389 | 0.764 |
| CC1(C)CCC(CN2CCN(c3ccc(C(=O)NS(=O)(=O)c4ccc(NCC5CCOCC5)c([N+](=O)[O-])c4)c(Oc4cnc5[nH]ccc5c4)c3)CC2)=C(c2ccc(Cl)cc2)C1 [Venetoclax] + CS(=O)(=O)CCNCc1ccc(-c2ccc3ncnc(Nc4ccc(OCc5cccc(F)c5)c(Cl)c4)c3c2)o1 [Lapatinib] (first compound max 1 µM, 7x7, partner max 10 µM) | -0.0194 | -0.0506 | 0.266 | 0.909 | 0.343 | 0.433 | 0.13 | 0.308 | 0.184 |
